Experiments:
normal rat = assay: Effect on the urine glucose excretion of the normal rat; format: in vivo; conditions: normal SD rats, single intragastric oral administration, then glucose 2 g/kg; in comparison with the blank control, P<0.01, dosage-dependent
From the text: The drug effect of promoting the urine glucose excretion can be determined according to the conventional assay. One preferable evaluation assay is to detect the effect of the present compound on the urine glucose excretion of the normal rat. The assay can be conducted as follows. Thirty 7-week-old male SD rats (about 200 g) are used in the assay. The tested compound having a purity of 97.8% is formulated with 0.75% CMC-Na. […] The SD rats are acclimatized for 7 days, and then placed in the metabolic cages. The rats are fasted overnight (18 hr) under the free access to water. The basic urine samples are collected, and then thirty rats are weighed and grouped randomly into five groups, six rats per group. The rats are administered with the tested compounds or the positive control drug at low dosage, medium dosage, or high dosage. Fifteen minutes after the administration, the rats are intragastrically administrated with 50% glucose solution (2 g/kg). For ensuring a complete collection of the 24-hour urine, the rats are immediately placed in the metabolic cage after the administration of the tested compounds or the positive control drug. One hour after the administration of the glucose solution, the feeds are supplied to the rats. The urines after the administration of the tested compounds or the positive control drug are collected for 24 hours, and then the urine volumes are calculated and the urine glucose concentrations are detected.
The data are analyzed with the software SPSS 12.0, and the quantized data are expressed in “average±standard deviation”. Multiple sets of data are compared according to the analysis of variance (One-way ANOVA). P<0.05 represents statistical difference.
Thirty 7-week-old male SD rats (about 200 g) were used. The compound of Example 2 having a purity of 97.8% was chose as the present compound and formulated with 0.75% CMC-Na. […] The SD rats were acclimatized for 7 days, and then placed in the metabolic cages. The rats were fasted overnight (18 hr) under the free access to water. The basic urine samples were collected, and then thirty rats were weighed and grouped randomly into five groups, six rats per group.
Fifteen minutes after the administration, the rats were intragastrically administrated with 50% glucose solution (2 g/kg). For ensuring a complete collection of the 24-hour urine, the rats were immediately placed in the metabolic cage after the administration of the tested compounds or the positive control drug. […] The urines after the administration of the tested compounds or the positive control drug were collected for 24 hours, and then the urine volumes were calculated and the urine glucose concentrations were detected.
The data were analyzed with the software SPSS 12.0, and the quantized data were expressed in “average±standard deviation”. […]

human SGLT-2 = molecular target: T1, human SGLT-2 (Homo sapiens, UniProt P31639); assay: Inhibitory effect on human SGLT-2 (14C-methyl-a-D-glucopyranoside uptake in transfected NIH3T3 cells); format: cell-based; conditions: NIH3T3 cells expressing human SGLT-2; read-out: IC50 value for inhibiting the human SGLT-2
T1 construct: expressed in transfected cells; host or cells: NIH3T3 cells
T1 sequence (P31639 1-672): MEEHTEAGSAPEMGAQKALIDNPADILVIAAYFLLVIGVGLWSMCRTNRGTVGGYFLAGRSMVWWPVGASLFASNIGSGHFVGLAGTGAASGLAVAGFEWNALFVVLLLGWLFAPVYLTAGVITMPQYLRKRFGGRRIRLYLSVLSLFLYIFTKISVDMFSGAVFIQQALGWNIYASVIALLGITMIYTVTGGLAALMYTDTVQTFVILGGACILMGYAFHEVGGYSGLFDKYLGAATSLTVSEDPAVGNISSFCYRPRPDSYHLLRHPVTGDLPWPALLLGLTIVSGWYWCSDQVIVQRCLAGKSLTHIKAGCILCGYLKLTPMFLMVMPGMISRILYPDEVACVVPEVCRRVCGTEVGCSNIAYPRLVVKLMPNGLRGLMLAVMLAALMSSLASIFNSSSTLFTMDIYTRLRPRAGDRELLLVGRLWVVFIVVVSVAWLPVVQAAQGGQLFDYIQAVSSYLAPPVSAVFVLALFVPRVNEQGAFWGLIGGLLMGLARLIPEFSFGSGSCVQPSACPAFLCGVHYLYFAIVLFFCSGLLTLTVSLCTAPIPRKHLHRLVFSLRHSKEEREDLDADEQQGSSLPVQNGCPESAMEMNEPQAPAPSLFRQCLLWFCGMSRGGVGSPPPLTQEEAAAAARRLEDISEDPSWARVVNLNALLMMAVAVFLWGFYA
Experimental: (§1) 0.2% gelatin was plated on a 24-well plate, and the plate was kept overnight. The plate was washed with PBS once before use. The NIH3T3 cells expressing human SGLT-2 by transfection were inoculated into the 24-well plate in 100,000 cells per well and 1 mL culture medium per well. On the third day, the culture medium was changed once, and simultaneously sodium butyrate was added thereto with a final concentration of 2 mM. The cells were washed with KRH-Na^+ (500 μL) twice, and then incubated with KRH-Na^+ (500 μL) for 30 minutes. The cells were then treated with 200 μL of KRH-Na^+ containing the compound of Example 2, and 50 μL of an uptake buffer (KRH-Na^+ plus methyl-a-D-[U-14C] glucopyranoside and 1 mM methyl-a-D-glucopyranoside). The cells were washed with 500 μL wash buffer thrice with the operation on ice, and baked overnight. The cells were lysed with 200 μL of 0.25N NaOH at 4° C. for 1 hr. The lysate was removed into an EPPENDORF tube, and centrifuged at 4° C. under 12000 g for 5 mins. […] of supernatant was placed in a 2 mL EPPENDORF tube, and 1.7 mL of scintillation cocktail was added thereto. The mixture was shaked vigorously, and then counted. The inhibition rate of the compound of Example 2 at each of concentrations on the transporting activity was calculated.
(§2) IC50 value could be determined by nonlinear curve fitting of sample activities vs. sample concentrations. […]

human SGLT-1 = molecular target: T2, human SGLT-1 (Homo sapiens, UniProt P13866); assay: Inhibitory effect on human SGLT-1 (14C-methyl-a-D-glucopyranoside uptake in transfected NIH3T3 cells); format: cell-based; conditions: NIH3T3 cells expressing human SGLT-1; read-out: IC50 value for inhibiting the human SGLT-1
T2 sequence (P13866 1-664): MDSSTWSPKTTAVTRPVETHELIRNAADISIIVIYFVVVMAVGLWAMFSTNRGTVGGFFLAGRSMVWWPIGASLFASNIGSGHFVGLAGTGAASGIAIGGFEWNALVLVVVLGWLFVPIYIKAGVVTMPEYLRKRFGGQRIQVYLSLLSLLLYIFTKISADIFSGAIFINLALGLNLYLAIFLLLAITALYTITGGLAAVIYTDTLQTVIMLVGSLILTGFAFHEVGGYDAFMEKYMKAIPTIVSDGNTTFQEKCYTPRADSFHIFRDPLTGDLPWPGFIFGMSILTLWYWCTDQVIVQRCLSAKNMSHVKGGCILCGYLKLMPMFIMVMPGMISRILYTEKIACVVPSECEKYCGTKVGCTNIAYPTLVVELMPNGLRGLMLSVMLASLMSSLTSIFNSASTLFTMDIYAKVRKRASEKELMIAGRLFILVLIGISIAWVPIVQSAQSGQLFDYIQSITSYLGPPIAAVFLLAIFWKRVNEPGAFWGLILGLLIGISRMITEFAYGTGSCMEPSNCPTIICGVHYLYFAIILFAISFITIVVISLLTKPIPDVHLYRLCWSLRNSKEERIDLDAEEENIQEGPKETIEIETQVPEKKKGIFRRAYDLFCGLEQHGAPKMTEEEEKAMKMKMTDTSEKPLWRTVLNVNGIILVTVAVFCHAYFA
Experimental: as §1, with “SGLT-1” for “SGLT-2”
as §2

IC50 (human SGLT-2)	IC50 (human SGLT-1)	Compound	24-hour urine glucose masses (normal rat)	24-hour urine volumes (normal rat)
–	–	CCOc1ccc(Cc2cc([C@@H]3O[C@H](CO)[C@@H](O)[C@H](O)[C@H]3O)ccc2Cl)cc1 [Dapagliflozin, reference compound]	remarkably increased	remarkably increased
0.000172 µM	28.7 µM	CS[C@H]1O[C@@H](c2ccc(C)c(Cc3ccc(-c4ccc(F)cc4)s3)c2)[C@H](O)[C@@H](O)[C@@H]1O [Example 2, (2S,3R,4R,5S,6R)-2-[3-((5-(4-fluorophenyl)thienyl)-2-methylene)-4-methylphenyl)-6-methylthio-tetrahydropyran-3,4,5-triol]	remarkably increased	remarkably increased
